Experimental data reported in paper PMC9114170, “Investigation of the Role of Hydrophobic Amino Acids on the Structure-Activity Relationship in the Antimicrobial Venom Peptide Ponericin L1” (The Journal of membrane biology, 2021).
Ends that are not written are not given here.

What was measured:
[1] = system: Gram-positive and Gram-negative strains; test: Antimicrobial activity over the MIC panel; format: cell-based; details: highest concentration tested 15μM
Description: Six different strains of bacteria were streaked on LB-Miller agar plates from a frozen glycerol stock derived from the original samples shipped from CGSC (Coli Genetic Stock Center, Yale University) or ATCC (American Type Culture Collection) (Escherichia coli D31 CGSC 5165 ([Burman, Nordstrom & Boman, 1968]), Staphylococcus aureus ATCC 35556. Pseudomonas aeruginosa PA-01 ATCC 47085, Acinetobacter baumannii ATCC 19606). For each of the strains a liquid overnight culture was prepared using a single colony into fresh LB broth and placed in a shaking incubator for ~ 18 hours at 37 C at 225 rpm. After the incubation period, a 1:200 dilution was made in fresh LB broth and then used for experimentation. Minimal Inhibitory Concentration (MIC) determinations were performed using mid-log phase bacteria diluted to 5 x 10^5 CFU/mL. Next, 90 μL of this diluted culture was then pipetted into a sterile 96-well plate that contains serially diluted aliquots of the peptide variants to consist of a total volume of 100 μL. This plate was then incubated for 18 hours at 37 C. Bacterial growth was determined by taking an OD600 measurement using a Spectramax M5 multimode plate reader post incubation. Minimal Bactericidal Concentration (MBC) was performed by taking 1 μL of the culture from the MIC plate and then pipetting it on to a fresh LB agar plate. After plating this culture, the plate was then incubated overnight at 37 C. MBC was determined by the growth or the lack of growth from each well on the agar plate.
The ability of L1 and the hydrophobic variants to act as antimicrobials was investigated using the Minimal Inhibitory Concentration (MIC) and Minimal Bactericidal Concentration (MBC) assays as previously described ([Wiegand, Hilpert & Hancock, 2008]). The MIC is determined as the lowest concentration of peptide required to inhibit bacterial growth in solution, while the MBC is the lowest concentration required to act in a bactericidal mechanism (as opposed to bacteriostatic) and is determined by plating MIC cultures on antimicrobial-free media. Peptides were screened against E. coli, S. aureus, A. baumannii, P. aeruginosa, B. subtilis, and K. pneumoniae.

[2] = system: Sheep red blood cells (RBCs); test: Hemolysis; format: cell-based; details: ovine RBCs, 1 hour at 37 C, up to 15μM peptide, absorbance 415 nm, normalised to Triton X-100; average of three replicates
Description: Hemolysis on Sheep red blood cells (RBCs) was used to quantify the destabilization of membranes by leakage of hemoglobin. Sheep blood was obtained through Hemostat Laboratories and stored at 2 – 8 C. A 7 mL aliquot of whole sheep blood was mixed with 7 mL of sterile PBS at pH 7.4. The solution was sedimented via centrifugation for 7 minutes at 2500 rpm. Supernatant was removed and the pellet was resuspended to the original volume of 14 mL. This was repeated three times and the final pellet was resuspended to 14 with PBS. Next, 90 μl of the cell suspension was pipetted into all wells of a conical bottom 96-well plate. […] The absorbance of the plate was taken at 415 nm using a Spectramax M5 multimode plate reader. By using the absorbance of each well compared to the wells without additive and those with Triton-X 100 a percentage of hemolysis was calculated. […]
Hemolytic activity of venom peptides and, more broadly AMPS in general, has often been a first approximation toward assessing potential for further development. […] The peptides we co-incubated with freshly isolated ovine red blood cells and peptide-induced hemolysis was determined by comparing hemoglobin leakage from treated cells to that of untreated cells as well as cells treated with the detergent Triton X-100 as a positive control.

[3] = Red edge excitation shift (REES) solution aggregation assay; format: physicochemical; details: 2 μM peptide in PBS pH 7.0, λex 280 to 307 nm, emission 310 to 410 nm, Trp fluorescence, average of three replicates
Source text: All fluorescence spectroscopy experiments were preformed using a JY-Horiba Fluoromax4 instrument. Excitation and emission slit widths were kept consistent at 2.5 nm. Semi-micro quartz cuvettes were utilized for each experiment. The following formula was used to calculate a spectral barycenter for each experiment: (1) B=∑λ*i/∑i where B is the barycenter, λ is the wavelength, and i is the intensity at the specified wavelength. An entire emission spectrum from 300-400 was used the carry out the calculation of barycenter.
Red edge excitation shift (REES) experiments utilized excitation at 6 different wavelengths (λex = 280, 290, 295, 300, 305, and 307 nm) and the same emission range of 310 to 410 nm. Samples were similarly prepared as above. A blank only containing PBS buffer was used as background to correct the spectra after each addition.
Aggregation of peptides was assessed utilizing the intrinsic fluorescence properties of the Trp residue in the L1 sequence. […] Differences in the side chain motion/dynamics of the Trp residue and the local environment around the Trp can be observed by monitoring the red-edge excitation shifts (REES). […]

Sequence | Antimicrobial activity (summary of MIC results) [1] | Hemolysis [2] | REES total shift [3]
FFKEFWTKMKGAGKAFFGKFKGFF [L1F] | broad spectrum activity | do not cross the threshold for inducing hemolytic activity | ~ 2 nm
LLKELWTKMKGAGKALLGKLKGLL [L1L] | broad spectrum activity | do not cross the threshold for inducing hemolytic activity | 
